According to patent US20260297070A1, “CYCLIC [COMPOUND LEFT OUT] WRN INHIBITORS” (Nimbus Wadjet, Inc., priority 2023, published 2026):

What follows are compounds tested against T1, human Werner helicase (WRN-BV08, Uniprot Q14191, amino acids 517-1235 with L1074F point mutation) (Homo sapiens, UniProt Q14191, L1074F) (assay: WRN (BV08) ADP-Glo Assay). Settings: 0.15 nM WRN, 5 μM ATP, 0.1 nM DNA duplex, 15 min preincubation, 60 min at 25° C., pH 7.5, 1% DMSO; read-out: ADP-Glo_hWRN_IC50.
T1 construct: Uniprot Q14191, amino acids 517-1235 with L1074F point mutation; TEV-cleavable 8×His (C, cleaved yes); made in house; host or cells: Sf9 insect cells (baculovirus)
T1 sequence (Q14191 with tags, fused parts or gaps L1074F limits assumed): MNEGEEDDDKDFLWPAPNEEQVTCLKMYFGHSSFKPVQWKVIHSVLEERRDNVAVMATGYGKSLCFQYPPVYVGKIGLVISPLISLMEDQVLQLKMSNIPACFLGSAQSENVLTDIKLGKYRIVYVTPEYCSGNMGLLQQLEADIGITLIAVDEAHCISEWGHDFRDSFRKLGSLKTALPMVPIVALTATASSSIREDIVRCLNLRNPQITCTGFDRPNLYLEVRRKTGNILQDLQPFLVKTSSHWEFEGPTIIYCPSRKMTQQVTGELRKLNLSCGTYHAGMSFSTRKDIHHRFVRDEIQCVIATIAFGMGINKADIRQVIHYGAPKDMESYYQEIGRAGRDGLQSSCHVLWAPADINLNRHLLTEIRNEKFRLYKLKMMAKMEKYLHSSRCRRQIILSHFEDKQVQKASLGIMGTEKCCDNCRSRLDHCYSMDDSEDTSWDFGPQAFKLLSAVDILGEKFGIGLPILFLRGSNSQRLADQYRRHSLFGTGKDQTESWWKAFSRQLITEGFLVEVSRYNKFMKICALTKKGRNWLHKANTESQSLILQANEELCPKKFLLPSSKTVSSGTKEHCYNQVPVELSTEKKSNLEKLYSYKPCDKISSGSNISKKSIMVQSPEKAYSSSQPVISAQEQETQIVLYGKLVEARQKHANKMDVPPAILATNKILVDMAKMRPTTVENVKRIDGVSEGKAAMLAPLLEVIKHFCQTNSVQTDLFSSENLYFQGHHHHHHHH
Format: biochemical
Method in brief: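 ADP-Glo luminescence read-out of ATP hydrolysis. Conditions: 0.15 nM WRN, 5 μM ATP, 0.1 nM DNA duplex, 1% DMSO, 60 min at 25 °C after 15 min compound preincubation. Max/min controls were DMSO and 20 μM NSC-617145; IC50 from four-parameter fit.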

Q: Cc1cccn1-c1ccc(CC(=O)N(Cc2nc(C3CC3)cs2)C2C=CS(=O)(=O)C2)c(F)c1 (stereo not drawn) [I-60, N-[(4-cyclopropyl-1,3-thiazol-2-yl)methyl]-N-(1,1-dioxo-2,3-dihydro-1lambda6-thiophen-3-yl)-2-[2-fluoro-4-(2-methyl-1H-pyrrol-1-yl)phenyl]acetamide] was tested. Which IC50 did it give?
A: The IC50 was under 500 nM.

Q: How did the IC50 turn out when CC(C)(O)c1cc(CN(C(=O)Cc2ccc(-n3cccc3)cc2F)C2C=CS(=O)(=O)C2)ccn1 (stereo not drawn) [I-61, N-(1,1-dioxo-2,3-dihydro-1lambda6-thiophen-3-yl)-2-[2-fluoro-4-(1H-pyrrol-1-yl)phenyl]-N-{[2-(2-hydroxypropan-2-yl)pyridin-4-yl]methyl}acetamide] was run?
A: Its IC50 is under 500 nM.

Q: For CCN(CC)C(=O)C(C(=O)N(Cc1ccnc(C(C)(C)O)c1)C1C=CS(=O)(=O)C1)c1ccc(-c2ccc(F)c(F)c2)cc1F (stereo not drawn) [I-62, N′-(1,1-dioxo-2,3-dihydro-1lambda6-thiophen-3-yl)-N,N-diethyl-N′-{[2-(2-hydroxypropan-2-yl)pyridin-4-yl]methyl}-2-{3,3′,4′-trifluoro-[1,1′-biphenyl]-4-yl}propanediamide], which IC50 is on record?
A: The IC50 was under 500 nM.

Q: O=C(Cc1ccc(S(F)(F)(F)(F)F)cc1)N(Cc1ccncc1)C1C=CS(=O)(=O)C1 (stereo not drawn) [I-63, N-(1,1-dioxo-2,3-dihydro-1lambda6-thiophen-3-yl)-2-[4-(pentafluoro-lambda6-sulfanyl)phenyl]-N-[(pyridin-4-yl)methyl]acetamide] was tested. Which IC50 did it give?
A: Its IC50 is under 500 nM.

Q: With COc1cc(CN(C(=O)Cc2ccc(-c3ccc(F)c(F)c3)cc2F)C2C=CS(=O)(=O)C2)ccn1 (stereo not drawn) [I-64, N-(1,1-dioxo-2,3-dihydro-1lambda6-thiophen-3-yl)-N-[(2-methoxypyridin-4-yl)methyl]-2-{3,3′,4′-trifluoro-[1,1′-biphenyl]-4-yl}acetamide] as the compound, how does the IC50 read?
A: The IC50 was under 500 nM.

Q: How did the IC50 turn out when Cc1cccn1-c1ccc(CC(=O)N(Cc2ccnc(C3(O)CCC3)c2)C2C=CS(=O)(=O)C2)c(F)c1 (stereo not drawn) [I-65, N-(1,1-dioxido-2,3-dihydrothiophen-3-yl)-2-(2-fluoro-4-(2-methyl-1H-pyrrol-1-yl)phenyl)-N-((2-(1-hydroxycyclobutyl)pyridin-4-yl)methyl)acetamide] was run?
A: Its IC50 is under 500 nM.

Q: How did the IC50 turn out when Cc1cccn1-c1ccc(CC(=O)N(Cc2ccnc(C(C)(C)O)c2)C2C=CS(=O)(=O)C2)c(F)c1 (stereo not drawn) [I-66, N-(1,1-dioxo-2,3-dihydro-1lambda6-thiophen-3-yl)-2-[2-fluoro-4-(2-methyl-1H-pyrrol-1-yl)phenyl]-N-{[2-(2-hydroxypropan-2-yl)pyridin-4-yl]methyl}acetamide] was run?
A: The IC50 was under 500 nM.

Q: Cc1cccn1-c1ccc(CC(=O)N(Cc2ccnc(OCC(F)(F)F)c2)C2C=CS(=O)(=O)C2)c(F)c1 (stereo not drawn) [I-67, N-(1,1-dioxo-2,3-dihydro-1lambda6-thiophen-3-yl)-2-[2-fluoro-4-(2-methyl-1H-pyrrol-1-yl)phenyl]-N-{[2-(2,2,2-trifluoroethoxy)pyridin-4-yl]methyl}acetamide] was tested. Which IC50 did it give?
A: Its IC50 is under 500 nM.

Q: How did the IC50 turn out when COc1cc(CN(C(=O)Cn2cc(-c3ccc(F)cc3)cn2)C2C=CS(=O)(=O)C2)ccn1 (stereo not drawn) [I-68, N-(1,1-dioxo-2,3-dihydro-1lambda6-thiophen-3-yl)-2-[4-(4-fluorophenyl)-1H-pyrazol-1-yl]-N-[(2-methoxypyridin-4-yl)methyl]acetamide] was run?
A: The IC50 was under 500 nM.

Q: With COc1cc(CN(C(=O)Cc2ccc(-n3cccc3C)cc2F)C2C=CS(=O)(=O)C2)ccn1 (stereo not drawn) [I-69, N-(1,1-dioxo-2,3-dihydro-1lambda6-thiophen-3-yl)-2-[2-fluoro-4-(2-methyl-1H-pyrrol-1-yl)phenyl]-N-[(2-methoxypyridin-4-yl)methyl]acetamide] as the compound, how does the IC50 read?
A: Its IC50 is under 500 nM.

Q: For CC(C)(O)c1cc(CN(C(=O)Cc2ccc(-c3cccc(Cl)c3)cc2F)C2C=CS(=O)(=O)C2)ccn1 (stereo not drawn) [I-70, 2-{3′-chloro-3-fluoro-[1,1′-biphenyl]-4-yl}-N-(1,1-dioxo-2,3-dihydro-1lambda6-thiophen-3-yl)-N-{[2-(2-hydroxypropan-2-yl)pyridin-4-yl]methyl}acetamide], which IC50 is on record?
A: Its IC50 is under 500 nM.

Q: For COc1cc(CN(C(=O)C(OC)c2ccc(-c3ccc(F)cc3)cc2F)C2C=CS(=O)(=O)C2)ccn1 (stereo not drawn) [I-71, 2-{3,4′-difluoro-[1,1′-biphenyl]-4-yl}-N-(1,1-dioxo-2,3-dihydro-1lambda6-thiophen-3-yl)-2-methoxy-N-[(2-methoxypyridin-4-yl)methyl]acetamide], which IC50 is on record?
A: The IC50 was under 500 nM.

Q: Which IC50 does the source give for Cc1cccn1-c1ccc(CC(=O)N(Cc2nc3ccccc3s2)C2C=CS(=O)(=O)C2)c(F)c1 (stereo not drawn) [I-73, N-[(1,3-benzothiazol-2-yl)methyl]-N-(1,1-dioxo-2,3-dihydro-1lambda6-thiophen-3-yl)-2-[2-fluoro-4-(2-methyl-1H-pyrrol-1-yl)phenyl]acetamide] here?
A: The IC50 was under 500 nM.

Q: Which IC50 does the source give for COC(C(=O)N(Cc1nc(C2CC2)cs1)C1C=CS(=O)(=O)C1)c1ccc(S(F)(F)(F)(F)F)cc1 (stereo not drawn) [I-74, N-[(4-cyclopropyl-1,3-thiazol-2-yl)methyl]-N-(1,1-dioxo-2,3-dihydro-1lambda6-thiophen-3-yl)-2-methoxy-2-[4-(pentafluoro-lambda6-sulfanyl)phenyl]acetamide] here?
A: The IC50 was under 500 nM.

Q: How did the IC50 turn out when CCN(C)C(=O)C(C(=O)N(Cc1ccnc(C(C)(C)O)c1)C1C=CS(=O)(=O)C1)c1ccc(-c2ccc(F)c(F)c2)cc1F (stereo not drawn) [I-75, N′-(1,1-dioxo-2,3-dihydro-1lambda6-thiophen-3-yl)-N-ethyl-N′-{[2-(2-hydroxypropan-2-yl)pyridin-4-yl]methyl}-N-methyl-2-{3,3′,4′-trifluoro-[1,1′-biphenyl]-4-yl}propanediamide] was run?
A: Its IC50 is under 500 nM.

Q: CC(C)(O)c1cc(CN(C(=O)Cn2cc(-c3ccccc3)cn2)C2C=CS(=O)(=O)C2)ccn1 (stereo not drawn) [I-76, N-(1,1-dioxo-2,3-dihydro-1lambda6-thiophen-3-yl)-N-{[2-(2-hydroxypropan-2-yl)pyridin-4-yl]methyl}-2-(4-phenyl-1H-pyrazol-1-yl)acetamide] was tested. Which IC50 did it give?
A: Its IC50 is under 500 nM.

Q: CC(C)(O)c1cc(CN(C(=O)C(F)c2ccc(-c3ccc(F)c(F)c3)cc2F)C2C=CS(=O)(=O)C2)ccn1 (stereo not drawn) [I-77, N-(1,1-dioxo-2,3-dihydro-1lambda6-thiophen-3-yl)-2-fluoro-N-{[2-(2-hydroxypropan-2-yl)pyridin-4-yl]methyl}-2-{3,3′,4′-trifluoro-[1,1′-biphenyl]-4-yl}acetamide] was tested. Which IC50 did it give?
A: Its IC50 is under 500 nM.

Q: With Cc1cccn1-c1ccc(CC(=O)N(Cc2ccnc3c2CCC3(C)O)C2C=CS(=O)(=O)C2)c(F)c1 (stereo not drawn) [I-78, N-(1,1-dioxo-2,3-dihydro-1lambda6-thiophen-3-yl)-2-[2-fluoro-4-(2-methyl-1H-pyrrol-1-yl)phenyl]-N-({7-hydroxy-7-methyl-5H,6H,7H-cyclopenta[b]pyridin-4-yl}methyl)acetamide] as the compound, how does the IC50 read?
A: The IC50 was under 500 nM.

Q: With CC(C)(O)c1csc(CN(C(=O)Cc2ccc(-c3ccc(F)cc3)cc2F)C2C=CS(=O)(=O)C2)n1 (stereo not drawn) [I-79, 2-(3,4′-difluoro-[1,1′-biphenyl]-4-yl)-N-(1,1-dioxido-2,3-dihydrothiophen-3-yl)-N-((4-(2-hydroxypropan-2-yl)thiazol-2-yl)methyl)acetamide] as the compound, how does the IC50 read?
A: Its IC50 is under 500 nM.

Q: With O=C(Cc1ccc(-c2ccc(F)cc2)cc1F)N(Cc1nc(C2CC2)cs1)C1C=CS(=O)(=O)C1 (stereo not drawn) [I-80, N-[(4-cyclopropyl-1,3-thiazol-2-yl)methyl]-2-{3,4′-difluoro-[1,1′-biphenyl]-4-yl}-N-(1,1-dioxo-2,3-dihydro-1lambda6-thiophen-3-yl)acetamide] as the compound, how does the IC50 read?
A: The IC50 was under 500 nM.

Q: For COC(C(=O)N(Cc1ccnc(C(C)(C)O)c1)C1C=CS(=O)(=O)C1)c1ccc(S(F)(F)(F)(F)F)cc1 (stereo not drawn) [I-81, N-(1,1-dioxido-2,3-dihydrothiophen-3-yl)-N-((2-(2-hydroxypropan-2-yl)pyridin-4-yl)methyl)-2-methoxy-2-(4-(pentafluoro-λ^6-sulfaneyl)phenyl)acetamide], which IC50 is on record?
A: Its IC50 is under 500 nM.

Q: With CC(C)(O)c1cc(CN(C(=O)Cc2ncc(-c3ccc(F)c(F)c3)cc2F)C2C=CS(=O)(=O)C2)ccn1 (stereo not drawn) [I-82, 2-[5-(3,4-difluorophenyl)-3-fluoropyridin-2-yl]-N-(1,1-dioxo-2,3-dihydro-1lambda6-thiophen-3-yl)-N-{[2-(2-hydroxypropan-2-yl)pyridin-4-yl]methyl}acetamide] as the compound, how does the IC50 read?
A: Its IC50 is under 500 nM.

Q: Which IC50 does the source give for O=C(Cc1ccc(-n2cccc2)cc1)N(Cc1nc(C2CC2)cs1)[C@@H]1C=CS(=O)(=O)C1 [I-83, N-[(4-cyclopropyl-1,3-thiazol-2-yl)methyl]-N-[(3R)-1,1-dioxo-2,3-dihydro-1lambda6-thiophen-3-yl]-2-[4-(1H-pyrrol-1-yl)phenyl]acetamide] here?
A: Its IC50 is under 500 nM.

Q: Which IC50 does the source give for CCOc1cc(CN(C(=O)Cc2ccc(-c3ccc(F)cc3)cc2F)C2C=CS(=O)(=O)C2)ccn1 (stereo not drawn) [I-84, 2-{3,4′-difluoro-[1,1′-biphenyl]-4-yl}-N-(1,1-dioxo-2,3-dihydro-1lambda6-thiophen-3-yl)-N-[(2-ethoxypyridin-4-yl)methyl]acetamide] here?
A: Its IC50 is 500 to 5000 nM.

Q: Which IC50 does the source give for COc1cc(CN(C(=O)Cn2cc(-c3ccc(Cl)cc3)cn2)C2C=CS(=O)(=O)C2)ccn1 (stereo not drawn) [I-85, 2-[4-(4-chlorophenyl)-1H-pyrazol-1-yl]-N-(1,1-dioxo-2,3-dihydro-1lambda6-thiophen-3-yl)-N-[(2-methoxypyridin-4-yl)methyl]acetamide] here?
A: The IC50 was under 500 nM.

Q: COc1cc(CN(C(=O)C(OC)c2ccc(-c3ccc(F)cc3)cc2)C2C=CS(=O)(=O)C2)ccn1 (stereo not drawn) [I-86, N-(1,1-dioxo-2,3-dihydro-1lambda6-thiophen-3-yl)-2-{4′-fluoro-[1,1′-biphenyl]-4-yl}-2-methoxy-N-[(2-methoxypyridin-4-yl)methyl]acetamide] was tested. Which IC50 did it give?
A: The IC50 was 500 to 5000 nM.

Q: How did the IC50 turn out when COc1cc(CN(C(=O)Cc2ccc(-c3ccc(F)cc3)cc2F)C2C=CS(=O)(=O)C2)ccn1 (stereo not drawn) [I-87, 2-{3,4′-difluoro-[1,1′-biphenyl]-4-yl}-N-(1,1-dioxo-2,3-dihydro-1lambda6-thiophen-3-yl)-N-[(2-methoxypyridin-4-yl)methyl]acetamide] was run?
A: The IC50 was 500 to 5000 nM.
